Structures can show the parent of a compound that is named as a salt. Where two headings read alike, the source gives them in different places.
How the values were obtained:
[1] = biological target: T1, HCMV polymerase (Human cytomegalovirus, UniProt P08546); assay: biochemical
T1 construct: made in house; host or cells: recombinant baculovirus-infected SF-9 cells
Description: The HCMV polymerase assay is performed using a scintillation proximity assay (SPA) as described in several references, such as N. D. Cook, et al., Pharmaceutical Manufacturing International, pages 49-53 (1992); K. Takeuchi, Laboratory Practice, September issue (1992); U.S. Pat. No. 4,568,649 (1986); which are incorporated by reference herein. Reactions are performed in 96-well plates. The assay is conducted in 100 μl volume with 5.4 mM HEPE (pH 7.5), 11.7 mM KCl, 4.5 mM MgCl2, 0.36 mg/ml BSA, and 90 nM ^3H-dTTP. Assays are run with and without CHAPS, (3-[(3-cholamidopropyl)-dimethylammonio]-1-propane-sulfonate) at a final concentration of 2 mM. HCMV polymerase is diluted in enzyme dilution buffer containing 50% glycerol, 250 mM NaCl, 10 mM HEPES (pH 7.5), 100 μg/ml BSA, and 0.01% sodium azide. The HCMV polymerase, which is expressed in recombinant baculovirus-infected SF-9 cells and purified according to literature procedures, is added at 10% (or 10 μl) of the final reaction volume, i.e., 100 μl. Compounds are diluted in 50% DMSO and 10 μl are added to each well. Control wells contain an equivalent concentration of DMSO. Unless noted otherwise, reactions are initiated via the addition of 6 nM biotinylated poly(dA)-oligo(dT) template/primer to reaction mixtures containing the enzyme, substrate, and compounds of interest. Plates are incubated in a 25 C or 37 C H2O bath and terminated via the addition of 40 μl/reaction of 0.5 M EDTA (pH 8) per well. Reactions are terminated within the time-frame during which substrate incorporation is linear and varied depending upon the enzyme and conditions used, i.e., 30 min. for HCMV polymerase. Ten μl of streptavidin-SPA beads (20 mg/ml in PBS/10% glycerol) are added following termination of the reaction. Plates are incubated 10 min. at 37 ° C., then equilibrated to room temperature, and counted on a Packard Topcount. Linear regressions are performed and IC50's are calculated using computer software.
A modified version of the above HCMV polymerase assay is performed as described above, but with the following changes: Compounds are diluted in 100% DMSO until final dilution into assay buffer. In the previous assay, compounds are diluted in 50% DMSO. 4.5 mM dithiothreotol (DTT) is added to the polymerase buffer.

[2] = modified SPA assay: compounds diluted in 100% DMSO, 4.5 mM DTT in polymerase buffer, read-out: polymerase IC50 (μM) HCMV

T1 sequence (P08546 whole entry): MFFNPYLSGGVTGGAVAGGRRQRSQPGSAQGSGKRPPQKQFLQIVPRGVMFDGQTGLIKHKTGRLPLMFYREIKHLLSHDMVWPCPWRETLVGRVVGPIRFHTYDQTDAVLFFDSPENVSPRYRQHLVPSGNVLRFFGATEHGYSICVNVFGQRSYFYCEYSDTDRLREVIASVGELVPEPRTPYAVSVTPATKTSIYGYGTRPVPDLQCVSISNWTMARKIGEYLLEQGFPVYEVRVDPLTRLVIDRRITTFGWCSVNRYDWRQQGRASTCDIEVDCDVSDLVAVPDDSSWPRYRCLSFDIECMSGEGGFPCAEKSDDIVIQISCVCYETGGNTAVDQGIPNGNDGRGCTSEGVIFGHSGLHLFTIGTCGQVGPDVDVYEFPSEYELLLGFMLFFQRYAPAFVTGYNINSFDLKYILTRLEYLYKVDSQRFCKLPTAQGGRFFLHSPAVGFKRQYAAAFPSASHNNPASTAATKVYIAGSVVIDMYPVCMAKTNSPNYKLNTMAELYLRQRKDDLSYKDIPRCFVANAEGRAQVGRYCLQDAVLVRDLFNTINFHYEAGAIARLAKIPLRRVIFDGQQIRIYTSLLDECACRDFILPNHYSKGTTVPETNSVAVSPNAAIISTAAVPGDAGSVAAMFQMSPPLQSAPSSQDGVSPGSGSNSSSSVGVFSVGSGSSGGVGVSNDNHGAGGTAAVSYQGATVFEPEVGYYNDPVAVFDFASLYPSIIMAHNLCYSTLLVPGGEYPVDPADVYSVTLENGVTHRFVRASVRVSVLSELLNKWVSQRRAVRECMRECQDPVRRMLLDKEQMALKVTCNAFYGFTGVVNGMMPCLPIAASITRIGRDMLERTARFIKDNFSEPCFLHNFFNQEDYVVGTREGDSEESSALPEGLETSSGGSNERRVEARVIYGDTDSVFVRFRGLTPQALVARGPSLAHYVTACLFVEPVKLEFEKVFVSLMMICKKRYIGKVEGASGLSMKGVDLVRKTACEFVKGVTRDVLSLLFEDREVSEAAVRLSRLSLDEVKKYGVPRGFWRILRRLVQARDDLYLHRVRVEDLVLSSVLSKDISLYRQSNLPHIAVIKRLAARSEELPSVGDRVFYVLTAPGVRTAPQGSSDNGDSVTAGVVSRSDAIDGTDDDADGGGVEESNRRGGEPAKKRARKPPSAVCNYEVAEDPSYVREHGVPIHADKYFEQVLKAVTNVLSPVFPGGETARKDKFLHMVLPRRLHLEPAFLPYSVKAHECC

Structure (SMILES) | melting point | IC50 [1, 2] [µM] | IC50 [1] [µM]
Cn1cc(C(=O)NCc2ccc(Cl)cc2)c(=O)c2cc(I)sc21 [Example 23, N-(4-Chlorobenzyl)-2-iodo-7-methyl-4-oxo-4,7-dihydrothieno[2,3-b]pyridine-5-carboxamide] | 236 to 237 °C | 2.9 | –
O=C(NCc1ccc(Cl)cc1)c1cnc2sccc2c1O [Example 1, N-(4-Chlorobenzyl)-4-hydroxythieno[2,3-b]pyridine-5-carboxamide] | 238 to 240 °C | 28.9 | –
COCC#Cc1cc2c(O)c(C(=O)NCc3ccc(Cl)cc3)cnc2s1 [Example 6, N-(4-Chlorobenzyl)-4-hydroxy-2-(3-methoxy-1-propynyl)-thieno[2,3-b]pyridine-5-carboxamide] | 215 to 218 °C | 5.8 | –
O=C(NCc1ccc(Cl)cc1)c1cn(CC2CCCO2)c2sc(CN3CCOCC3)cc2c1=O (centres unmarked) [Example 52] | 191 to 195 °C | 1.5 | –
O=C(NCc1ccc(Cl)cc1)c1cnc2sc(CN3CCOCC3)cc2c1O [Example 41, N-(4-Chlorobenzyl)-4-hydroxy-2-(4-morpholinylmethyl)-thieno[2,3-b]pyridine-5-carboxamide] | 193 to 195 °C | – | 3.4
O=C(NCc1ccc(Cl)cc1)c1cnc2sc(CO)cc2c1O [Example 34, N-(4-Chlorobenzyl)-4-hydroxy-2-(hydroxymethyl)thieno[2,3-b]pyridine-5-carboxamide] | 205 to 210 °C | > 20 | –
O=C(NCc1ccc(Cl)cc1)c1cn(Cc2ccccc2)c2sc(CN3CCOCC3)cc2c1=O [Example 49, 7-Benzyl-N-(4-chlorobenzyl)-2-(4-morpholinylmethyl)-4-oxo-4,7-dihydrothieno[2,3-b]pyridine-5-carboxamide] | 225 to 226.5 °C | 3.2 | –
CC(C)n1cc(C(=O)NCc2ccc(Cl)cc2)c(=O)c2cc(CCCO)sc21 [Example 28, N-(4-Chlorobenzyl)-2-(3-hydroxypropyl)-7-isopropyl-4-oxo4,7-dihydrothieno[2,3-b]pyridine-5-carboxamide] | 84 to 92 °C | 2.4 | –
CC(C)n1cc(C(=O)NCc2ccc(Cl)cc2)c(=O)c2cc(CN3CCOCC3)sc21 [Example 44, N-(4-Chlorobenzyl)-7-isopropyl-2-(4-morpholinylmethyl)-4-oxo-4,7-dihydrothieno[2,3-b]pyridine-5-carboxamide] | 191 to 195 °C | 4.7 | –
O=C(NCc1ccc(Cl)cc1)c1cn(Cc2ccncc2)c2sc(CN3CCOCC3)cc2c1=O [Example 55, N-(4-Chlorobenzyl)-2-(4-morpholinylmethyl)-4-oxo-7-(4-pyridinylmethyl)-4,7-dihydrothieno[2,3-b]pyridine-5-carboxamide] | 208 to 210 °C (dec.) | 5 | –
Cn1cc(C(=O)NCc2ccc(Cl)cc2)c(=O)c2cc(CO)sc21 [Example 35, N-(4-Chlorobenzyl)-2-(hydroxymethyl)-7-methyl-4-oxo-4,7-dihydrothieno[2,3-b]pyridine-5-carboxamide] | 222 to 225 °C | 18.5 | –
Cn1cc(C(=O)NCc2ccc(Br)cc2)c(=O)c2cc(CN3CCOCC3)sc21 [Example 46, N-(4-Bromobenzyl)-7-methyl-2-(4-morpholinylmethyl)-4-oxo-4,7-dihydrothieno[2,3-b]pyridine-5-carboxamide] | 245 to 246 °C | 3.8 | –
O=C(NCc1ccc(Cl)cc1)c1cn(Cc2cccc(F)c2)c2sc(CN3CCOCC3)cc2c1=O [Example 50, N-(4-Chlorobenzyl)-7-(3-fluorobenzyl)-2-(4-morpholinyl-methyl)-4-oxof47-dihydrothieno[2,3-b]pyridine-5-carboxamide] | 214 to 215 °C | 3.8 | –
COC(=O)c1cc2c(O)c(C(=O)NCc3ccc(Cl)cc3)cnc2s1 [Example 33, Methyl 5-{[(4-Chlorobenzyl)amino]carbonyl}-4-hydroxythieno[2,3-b]pyridine-2-carboxylate] | 238 to 240 °C | 22.4 | –
CCn1cc(C(=O)NCc2ccc(Cl)cc2)c(=O)c2cc(C#CCOC(=O)CCC(=O)O)sc21 [Example 29, 4-{[3-(5-{[(4-Chlorobenzyl)amino]carbonyl}-7-ethyl-4-oxo-4,7-dihydrothieno[2,3-b]pyridin-2-yl)-2-propynyl]oxy}-4-oxobutanoic Acid] | 180 to 182 °C | 6.5 | –
O=C(NCc1ccc(Cl)cc1)c1cnc2sc(Br)cc2c1O [Example 4, 2-Bromo-N-(4-chlorobenzyl)-4-hydroxythieno[2,3-b]pyridine-5-carboxamide] | 234 to 236 °C | 10.8 | –
O=C(NCc1ccc(Cl)cc1)c1cnc2sc(I)cc2c1O [Example 2, N-(4-Chlorobenzyl)-4-hydroxy-2-iodothieno[2,3-b]pyridine-5-carboxamide] | 231 to 232 °C (dec.) | 6.3 | –
CCn1cc(C(=O)NCc2ccc(Cl)cc2)c(=O)c2ccsc21 [Example 12, N-(4-Chlorobenzyl)-7-ethyl-4-oxo-4,7-dihydrothieno[2,3-b]pyridine-5-carboxamide] | 183 to 184 °C | 11 | –
CC(C)n1cc(C(=O)NCc2ccc(Cl)cc2)c(=O)c2cc(C#CCO)sc21 [Example 27, N-(4-Chlorobenzyl)-2-(3-hydroxy-1-propynyl)-7-isopropyl-4-oxo-4,7-dihydrothieno[2,3-b]pyridine-5-carboxamide] | 190 to 196 °C | 4.2 | –
O=C(NCc1ccc(Cl)cc1)c1cnc2sc(C(=O)N3CCOCC3)cc2c1O [Example 47, N-(4-Chlorobenzyl)-4-hydroxy-2-(4-morpholinyl-carbonyl)-thieno[2,3-b]pyridine-5-carboxamide] | 217 to 219 °C | > 20 | –
CCn1cc(C(=O)NCc2ccc(Cl)cc2)c(=O)c2cc(C#CCOC(=O)C(N)C(C)C)sc21 (centres unmarked) (as salt: hydrochloride) [Example 31, 3-(5-{[(4-Chlorobenzyl)amino]carbonyl}-7-ethyl-4-oxo-4,7-dihydrothieno[2,3-b]pyridin-2-yl)-2-propynyl 2-Amino-3-methylbutanoate Hydrochloride] | 171 to 172 °C | – | –
N#Cc1cc2c(O)c(C(=O)NCc3ccc(Cl)cc3)cnc2s1 [Example 9, N-(4-Chlorobenzyl)-2-cyano-4-hydroxythieno[2,3-b]pyridine-5-carboxamide] | – | 12.5 | –
CC(C)n1cc(C(=O)NCc2ccc(Cl)cc2)c(=O)c2cc(I)sc21 [Example 26, N-(4-Chlorobenzyl)-2-iodo-7-isopropyl-4-oxo-7-3dihydrothiedion[2,3-b]pyridine-5-carboxamide] | 173 to 180 °C | 14.2 | –
CCn1cc(C(=O)NCc2ccc(Cl)cc2)c(=O)c2cc(C#CCOC(=O)CN3CCOCC3)sc21 [Example 30, 3-(5-{[(4-Chlorobenzyl)amino]carbonyl}-7-ethyl-4-oxo-4,7-dihydrothieno[2,3-b]pyridin-2-yl)-2-propynyl 2-(4-Morpholinyl)acetate] | 168 to 170 °C | 28.2 | –
CCn1cc(C(=O)NCc2ccc(Cl)cc2)c(=O)c2cc(C#CCOC(=O)c3cccc(CN4CCOCC4)c3)sc21 [Example 32, 3-(5-{[(4-Chlorobenzyl)amino]carbonyl}-7-ethyl-4-oxo-4,7-dihydrothieno[2,3-b]pyridin-2-yl)-2-propynyl 3-(4-Morpholinylmethyl)benzoate] | 147 to 150 °C | > 50 | –
CCn1cc(C(=O)NCc2ccc(Cl)cc2)c(=O)c2cc(C#CCOC(=O)C(N)C(C)C)sc21 (centres unmarked) [Example 31, 3-(5-{[(4-Chlorobenzyl)amino]carbonyl}-7-ethyl-4-oxo-4,7-dihydrothieno[2,3-b]pyridin-2-yl)-2-propynyl 2-Amino-3-methylbutanoate Hydrochloride] | – | 15.4 | –
CCN(CC)CCn1cc(C(=O)NCc2ccc(Cl)cc2)c(=O)c2cc(C#CCO)sc21 (as salt: hydrochloride) [Example 18, N-(4-Chlorobenzyl)-7-[2-(diethylamino)ethyl]-2-(3hydroxy-1-propynyl)4-oxo4,7-dihydrothieno[2,3-b]pyridine-5-carboxamide hydrochloride] | 212 to 214 °C (dec.) | – | –
